Results from PubChem BioAssay (NCI).
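Growth conditions: 96-well plates. Treatment: test compound, 48 hours, 5 concentrations. Analysis: linear interpolation between bracketing concentrations; unreached endpoints set to highest concentration. TGI denotes the concentration required for complete inhibition of growth.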

What was measured:
Test in all cases: growth of human tumour cells (NCI), 48 h
OVCAR-8 ovarian = tested on: OVCAR-8 ovarian
SN12C renal = tested on: SN12C renal
SK-MEL-5 melanoma = tested on: SK-MEL-5 melanoma
SF-268 CNS = tested on: SF-268 CNS
COLO 205 colon = tested on: COLO 205 colon
PC-3 prostate = tested on: PC-3 prostate
A549 NSCLC = tested on: A549 NSCLC
HS 578T breast = tested on: HS 578T breast
TK-10 renal = tested on: TK-10 renal
MOLT-4 leukemia = tested on: MOLT-4 leukemia
A498 renal = tested on: A498 renal
NCI-H460 lung = tested on: NCI-H460 lung
MDA-N = tested on: MDA-N
NCI-H522 lung = tested on: NCI-H522 lung
SNB-19 CNS = tested on: SNB-19 CNS
SK-MEL-2 melanoma = tested on: SK-MEL-2 melanoma
NCI-H226 lung = tested on: NCI-H226 lung
SW-620 colon = tested on: SW-620 colon
OVCAR-3 ovarian = tested on: OVCAR-3 ovarian
RPMI-8226 leukemia = tested on: RPMI-8226 leukemia
SF-295 CNS = tested on: SF-295 CNS
BT-549 breast = tested on: BT-549 breast
MCF7 breast = tested on: MCF7 breast
NCI-H23 lung = tested on: NCI-H23 lung
LOX IMVI melanoma = tested on: LOX IMVI melanoma
HOP-92 NSCLC = tested on: HOP-92 NSCLC
HOP-62 NSCLC = tested on: HOP-62 NSCLC
HCT-116 colon = tested on: HCT-116 colon
M14 melanoma = tested on: M14 melanoma
SK-OV-3 ovarian = tested on: SK-OV-3 ovarian
SF-539 CNS = tested on: SF-539 CNS
RXF 393 renal = tested on: RXF 393 renal
SK-MEL-28 melanoma = tested on: SK-MEL-28 melanoma
OVCAR-5 ovarian = tested on: OVCAR-5 ovarian
HCT-15 colon = tested on: HCT-15 colon
OVCAR-4 ovarian = tested on: OVCAR-4 ovarian
MALME-3M melanoma = tested on: MALME-3M melanoma
786-0 renal = tested on: 786-0 renal
IGROV1 ovarian = tested on: IGROV1 ovarian
EKVX NSCLC = tested on: EKVX NSCLC
ACHN renal = tested on: ACHN renal
T-47D breast = tested on: T-47D breast
NCI/ADR-RES ovarian = tested on: NCI/ADR-RES ovarian
HT29 colon = tested on: HT29 colon
MDA-MB-231 breast = tested on: MDA-MB-231 breast
UO-31 renal = tested on: UO-31 renal
U251 CNS = tested on: U251 CNS
KM12 colon = tested on: KM12 colon
CAKI-1 renal = tested on: CAKI-1 renal
DU-145 prostate = tested on: DU-145 prostate
MDA-MB-435 = tested on: MDA-MB-435
UACC-257 melanoma = tested on: UACC-257 melanoma
SNB-75 CNS = tested on: SNB-75 CNS
HCC-2998 colon = tested on: HCC-2998 colon
UACC-62 melanoma = tested on: UACC-62 melanoma
HL-60(TB) leukemia = tested on: HL-60(TB) leukemia
K-562 leukemia = tested on: K-562 leukemia
CCRF-CEM leukemia = tested on: CCRF-CEM leukemia

SMILES: COc1ccc2nc3cccc([N+](=O)[O-])c3c(NCCN(C)C)c2c1
- TGI (OVCAR-8 ovarian): 251 nM
- TGI (SN12C renal): 327 nM
- TGI (SK-MEL-5 melanoma): 219 nM
- TGI (SF-268 CNS): 546 nM
- TGI (COLO 205 colon): 107 nM
- TGI (PC-3 prostate): 268 nM
- TGI (A549 NSCLC): 279 nM
- TGI (HS 578T breast): 518 nM
- TGI (TK-10 renal): 659 nM
- TGI (MOLT-4 leukemia): 491 nM
- TGI (A498 renal): 347 nM
- TGI (NCI-H460 lung): 67.2 nM
- TGI (MDA-N): 262 nM
- TGI (NCI-H522 lung): 48.7 nM
- TGI (SNB-19 CNS): 829 nM
- TGI (SK-MEL-2 melanoma): 272 nM
- TGI (NCI-H226 lung): 456 nM
- TGI (SW-620 colon): 756 nM
- TGI (OVCAR-3 ovarian): 312 nM
- TGI (RPMI-8226 leukemia): 393 nM
- TGI (SF-295 CNS): 1000 nM
- TGI (BT-549 breast): 184 nM
- TGI (MCF7 breast): 314 nM
- TGI (NCI-H23 lung): 362 nM
- TGI (LOX IMVI melanoma): 232 nM
- TGI (HOP-92 NSCLC): 192 nM
- TGI (HOP-62 NSCLC): 323 nM
- TGI (HCT-116 colon): 115 nM
- TGI (M14 melanoma): 218 nM
- TGI (SK-OV-3 ovarian): 781 nM
- TGI (SF-539 CNS): 297 nM
- TGI (RXF 393 renal): 230 nM
- TGI (SK-MEL-28 melanoma): 310 nM
- TGI (OVCAR-5 ovarian): 437 nM
- TGI (HCT-15 colon): 263 nM
- TGI (OVCAR-4 ovarian): 271 nM
- TGI (MALME-3M melanoma): 213 nM
- TGI (786-0 renal): 348 nM
- TGI (IGROV1 ovarian): 390 nM
- TGI (EKVX NSCLC): 397 nM
- TGI (ACHN renal): 357 nM
- TGI (T-47D breast): 408 nM
- TGI (NCI/ADR-RES ovarian): 373 nM
- TGI (HT29 colon): 441 nM
- TGI (MDA-MB-231 breast): 357 nM
- TGI (UO-31 renal): 413 nM
- TGI (U251 CNS): 600 nM
- TGI (KM12 colon): 449 nM
- TGI (CAKI-1 renal): 746 nM
- TGI (DU-145 prostate): 60.1 nM
- TGI (MDA-MB-435): 208 nM
- TGI (UACC-257 melanoma): 384 nM
- TGI (SNB-75 CNS): 335 nM
- TGI (HCC-2998 colon): 188 nM

SMILES: CC1=CCCC(C)(O)C2CC(CCC3(C)OC3CC1)C(C)C(=O)O2 (stereo not given)
- TGI (OVCAR-8 ovarian): > 100000 nM
- TGI (SN12C renal): > 100000 nM
- TGI (SK-MEL-5 melanoma): > 100000 nM
- TGI (SF-268 CNS): > 100000 nM
- TGI (COLO 205 colon): > 100000 nM
- TGI (PC-3 prostate): > 100000 nM
- TGI (A549 NSCLC): > 100000 nM
- TGI (HS 578T breast): > 100000 nM
- TGI (TK-10 renal): > 100000 nM
- TGI (MOLT-4 leukemia): > 100000 nM
- TGI (A498 renal): > 100000 nM
- TGI (NCI-H460 lung): > 100000 nM
- TGI (MDA-N): > 100000 nM
- TGI (NCI-H522 lung): > 100000 nM
- TGI (SNB-19 CNS): > 100000 nM
- TGI (SK-MEL-2 melanoma): > 100000 nM
- TGI (NCI-H226 lung): > 100000 nM
- TGI (SW-620 colon): > 100000 nM
- TGI (OVCAR-3 ovarian): > 100000 nM
- TGI (RPMI-8226 leukemia): > 100000 nM
- TGI (SF-295 CNS): > 100000 nM
- TGI (UACC-62 melanoma): > 100000 nM
- TGI (BT-549 breast): > 100000 nM
- TGI (MCF7 breast): > 100000 nM
- TGI (NCI-H23 lung): > 100000 nM
- TGI (LOX IMVI melanoma): > 100000 nM
- TGI (HCT-116 colon): > 100000 nM
- TGI (M14 melanoma): > 100000 nM
- TGI (SK-OV-3 ovarian): > 100000 nM
- TGI (SF-539 CNS): > 100000 nM
- TGI (HL-60(TB) leukemia): > 100000 nM
- TGI (K-562 leukemia): > 100000 nM
- TGI (SK-MEL-28 melanoma): > 100000 nM
- TGI (OVCAR-5 ovarian): > 100000 nM
- TGI (HCT-15 colon): > 100000 nM
- TGI (OVCAR-4 ovarian): > 100000 nM
- TGI (MALME-3M melanoma): > 100000 nM
- TGI (786-0 renal): > 100000 nM
- TGI (IGROV1 ovarian): > 100000 nM
- TGI (EKVX NSCLC): > 100000 nM
- TGI (ACHN renal): > 100000 nM
- TGI (T-47D breast): > 100000 nM
- TGI (CCRF-CEM leukemia): > 100000 nM
- TGI (NCI/ADR-RES ovarian): > 100000 nM
- TGI (HT29 colon): > 100000 nM
- TGI (MDA-MB-231 breast): > 100000 nM
- TGI (UO-31 renal): > 100000 nM
- TGI (U251 CNS): > 100000 nM
- TGI (KM12 colon): > 100000 nM
- TGI (CAKI-1 renal): > 100000 nM
- TGI (DU-145 prostate): > 100000 nM
- TGI (MDA-MB-435): > 100000 nM
- TGI (UACC-257 melanoma): > 100000 nM
- TGI (SNB-75 CNS): > 100000 nM
- TGI (HCC-2998 colon): > 100000 nM

SMILES: CCCCCc1cc2cc3c(c(O)c2c(=O)[nH]1)C1(CC3)C(O)=c2c(=O)c3c(=O)cc(OC)c(=O)c=3c(=O)c2=C1O (stereo not given)
- TGI (OVCAR-8 ovarian): 3260 nM
- TGI (SN12C renal): 3420 nM
- TGI (SK-MEL-5 melanoma): 2220 nM
- TGI (SF-268 CNS): 3560 nM
- TGI (COLO 205 colon): 449 nM
- TGI (PC-3 prostate): 2240 nM
- TGI (A549 NSCLC): 6060 nM
- TGI (HS 578T breast): 15300 nM
- TGI (MOLT-4 leukemia): 4480 nM
- TGI (A498 renal): 5260 nM
- TGI (NCI-H460 lung): 3350 nM
- TGI (MDA-N): 3710 nM
- TGI (NCI-H522 lung): 1690 nM
- TGI (SNB-19 CNS): 3740 nM
- TGI (SK-MEL-2 melanoma): 3300 nM
- TGI (NCI-H226 lung): 4580 nM
- TGI (SW-620 colon): 3310 nM
- TGI (OVCAR-3 ovarian): 1930 nM
- TGI (RPMI-8226 leukemia): 2420 nM
- TGI (SF-295 CNS): 18700 nM
- TGI (UACC-62 melanoma): 4820 nM
- TGI (BT-549 breast): 3600 nM
- TGI (MCF7 breast): 2230 nM
- TGI (NCI-H23 lung): 2770 nM
- TGI (LOX IMVI melanoma): 2650 nM
- TGI (HOP-92 NSCLC): 1250 nM
- TGI (HOP-62 NSCLC): 12800 nM
- TGI (HCT-116 colon): 2800 nM
- TGI (M14 melanoma): 3220 nM
- TGI (SK-OV-3 ovarian): 9960 nM
- TGI (RXF 393 renal): 3550 nM
- TGI (HL-60(TB) leukemia): 1410 nM
- TGI (K-562 leukemia): 2290 nM
- TGI (SK-MEL-28 melanoma): 4260 nM
- TGI (OVCAR-5 ovarian): 5860 nM
- TGI (HCT-15 colon): 2240 nM
- TGI (OVCAR-4 ovarian): 3020 nM
- TGI (MALME-3M melanoma): 2540 nM
- TGI (786-0 renal): 2910 nM
- TGI (IGROV1 ovarian): 4400 nM
- TGI (EKVX NSCLC): 3360 nM
- TGI (ACHN renal): 2180 nM
- TGI (T-47D breast): 3580 nM
- TGI (CCRF-CEM leukemia): 884 nM
- TGI (NCI/ADR-RES ovarian): 7350 nM
- TGI (HT29 colon): 2900 nM
- TGI (MDA-MB-231 breast): 2160 nM
- TGI (UO-31 renal): 2380 nM
- TGI (U251 CNS): 2750 nM
- TGI (KM12 colon): 5400 nM
- TGI (CAKI-1 renal): 1800 nM
- TGI (DU-145 prostate): 3460 nM
- TGI (MDA-MB-435): 3930 nM
- TGI (UACC-257 melanoma): 2140 nM
- TGI (SNB-75 CNS): 4680 nM
- TGI (HCC-2998 colon): 3920 nM
